Source: patent US20200390754A1, “METHODS OF ADMINISTERING TOLPERISONE” (Neurana Pharmaceuticals, Inc., priority 2017, published 2020)

Tests used:
[1] = test system: male and female healthy volunteers; assay: Country Vigilance-Divided Attention (CVDA) driving scenario on the CRCDS-MiniSim driving simulator; details: for Lane Exceedance (extent of driving outside of lanes) / Total Collisions: Tolperisone 450 mg, Cyclobenzaprine 30 mg, TID; for SDLP in driving simulation compared to placebo (words, FIG. 1): primary endpoint; for Reaction time on the divided attention test: Day 1, compared to placebo (placebo or cyclobenzaprine)
Method: Methodology: This was a randomized, placebo-controlled, multiple-dose 3-way cross-over study of the safety and cognitive effects of multiple doses of 150 mg tolperisone film-coated tablets (prepared according to methods described and referred to herein) administered three times daily (TID) in 31 male and female healthy volunteers. […] Subjects received 3 days of each treatment over three treatment periods. Subject participation was approximately 3 weeks as outpatients with 3 days each week as overnight clinic participants. Subjects were screened within 28 days prior to Treatment Period 1 (Visit 2) for eligibility for participation in the study. Subjects who met all inclusion/exclusion criteria were admitted to the clinic on Day 1 to be evaluated for continued eligibility. Subjects performed a practice trial with the driving simulator and the cognitive function test. Subjects were dosed on the morning of Day 1. Approximately one hour after the […] dose on Day 1, subjects were administered the cognitive test, followed by the driving simulator examination. On the morning of Day 2, prior to dosing, subjects were re-administered the cognitive test and driving examination to assess residual next day effects. Subjects repeated cognitive testing and the driving examination on the morning of Day 3, after administration of the AM study medication, to evaluate the cumulative effects of 3 days of dosing. Subjects were discharged on Day 3 with instructions to return to the clinic on […] to repeat the above procedure with the second and third treatments. A follow-up phone call was conducted 1 week (±3 days) following discharge from the clinic on Day 17 to assess for continued safety. The total duration of study participation was approximately 4 weeks (range 4-8 weeks), including Screening and Follow-up.
The pharmacodynamic measures included simulated driving performance as measured by SDLP using the Cognitive Research Corporation Driving Simulator-MiniSim (CRCDS-MiniSim), the Karolinska Sleepiness Scale, the CogScreen Symbol Digit Coding (SDC) test, a self-perceived safety to drive question, the Visual Analog Scale (VAS) to assess subject's motivation and self-appraisal of their driving performance, and an assessment of the relationship between single-dose plasma drug levels and driving performance. Blood samples for the determination of plasma tolperisone concentrations were drawn prior to each AM dosing on Days 1-3, 8-10, 15-17 and post-driving test (15-30 minutes after the drive) on Days 1, 8, and 15. Blood samples collected post-driving test on Days 3, 10, and 17 were drawn between 1.5 and 2 hours after the start of the drive (approximately 10:30 AM to 11:00 AM). Safety was assessed by the monitoring and recording of adverse events, vital sign measurements, clinical laboratory abnormalities, electrocardiograms (ECGs), pregnancy tests, and physical examinations.
The primary endpoint, SDLP, was analyzed using a mixed-model, repeated measures with fixed effects for sequence, period, and treatment, with repeated observations for subjects. An unstructured covariance structure and Kenward-Roger degrees of freedom was used. […] In addition, pair-wise within subject differences in SDLP greater than 4.4 cm in absolute value (equal to the previously found difference between placebo and 0.05% Blood Alcohol Content (BAC) for the CRCDS) were compared using McNemar's test. Pair-wise within subject differences in SDLP were also tested for symmetry about […] using the maximally selected McNemar test. P-values for significance testing of period and sequence effects are also provided. Pair-wise comparisons (hypothesis tests) of differences in least squares means, and 95% confidence intervals on differences will be provided for:
A 62.1 mile (100 km), monotonous, two-lane highway driving task that includes a secondary visual vigilance task (DA).

[2] = test system: male and female healthy volunteers; assay: Digit Symbol Substitution Test (CogScreen Symbol Digit Coding); assay type: in vivo, human; details: Tolperisone 450 mg, Cyclobenzaprine 30 mg, TID
Method: (§1) Subjects were dosed on the morning of Day 1.
This test is used to measure attention, visual scanning, working memory, and speed of information processing. SDC is a computer analogue of the conventional symbol-substitution task found in the WAIS-R Digit Symbol subtest and the Symbol Digit Modalities Test. Details of the use of the SDC are provided in the CogScreen® Examiner Manual, CogScreen LLC, 2016. CogScreen SDC endpoints include: • Number of correct responses; • Response Accuracy; and • Standard deviation of reaction time.

[3] = test system: male and female healthy volunteers; assay: Karolinska Sleepiness Scale (KSS) test; assay type: in vivo, human; details: for Karolinska Sleepiness Scale (KSS): Tolperisone 450 mg, Cyclobenzaprine 30 mg, TID
Method: as §1
The Karolinska Sleepiness Scale (KSS) was used to assess subjective level of sleepiness. This is a subject self-report measure of situational sleepiness and provides an assessment of alertness/sleepiness at a particular point in time. […] Subjects indicated their level of alertness versus sleepiness according to the following scale:
The KSS assessment was performed immediately before and after the simulated driving test Subjects self-reported their KSS assessments and the scores were recorded in the case report form.

[4] = test system: male and female healthy volunteers; assay: Safety: treatment emergent adverse events; assay type: in vivo, human; details: for Treatment Emergent Adverse Events: Cardiac / Treatment Emergent Adverse Events: Gastrointestinal Disorders / Treatment Emergent Adverse Events: General: Sluggishness / Treatment Emergent Adverse Events: Nervous System Disorders, Attention / Treatment Emergent Adverse Events: Nervous System Disorders, Dizziness / Treatment Emergent Adverse Events: Nervous System Disorders, Headache / Treatment Emergent Adverse Events: Nervous System Disorders, Lethargy / Treatment Emergent Adverse Events: Nervous System Disorders, Somnolence / Treatment Emergent Adverse Events: Psychiatric (Insomnia) / Treatment Emergent Adverse Events: Respiratory / Treatment Emergent Adverse Events: Skin: Tolperisone 450 mg, Cyclobenzaprine 30 mg; for number of Treatment Emergent Adverse Events (TEAEs) reported: n per treatment, 3 days of each treatment
Method: as §1
Safety analysis was based on the safety population. Safety measures were summarized using descriptive statistics and listed for each subject. MedDRA thesaurus was used to map adverse events verbatim to preferred terms and body systems. WHOdrug thesaurus (Sep. 1, 2016) was used to map prior medication and concomitant medication verbatim to preferred terms and ATC Class.
The Principal Investigator was responsible for the monitoring of subjects' safety and reporting of all adverse events (AEs) and serious adverse events (SAEs). The study personnel reviewed subject-volunteered information related to subjective complaints, and reviewed all laboratory findings and queried the subject specifically for visits requiring hospitalization, procedures, laboratory follow-up, or unscheduled visits to see their physician. Each trial subject was questioned about AEs during treatment with study drug. All AEs were documented in the subject's source documents as well as on the appropriate case report form (CRF). The Investigator assessed and recorded any AE in detail on the AE CRF pages including a description of the event, the date of onset, severity, time course, duration and outcome, relationship of the AE to study drug, and an alternate etiology for events not considered “probably” related to study drug and any actions taken.

Row | Average speed compared to placebo ([1]; in vivo) | Divided attention: number of Commission Errors compared to placebo ([1]; in vivo) | Divided attention: number of Correct Responses compared to placebo ([1]; in vivo) | Divided attention: number of Omission Errors ([1]; in vivo) | Total Collisions compared to placebo ([1]; in vivo) | SDLP in driving simulation compared to placebo (words, FIG. 1) [1] | Symbol Digit Coding (SDC) Cognitive Research Version ([2]; Day 1 (at Tmax)) | Symbol Digit Coding (SDC) Cognitive Research Version ([2]; Next Day Residual) | Symbol Digit Coding (SDC) Cognitive Research Version ([2]; Steady State) | Karolinska Sleepiness Scale (KSS) ([3]; Day 1 (at Tmax)) | Karolinska Sleepiness Scale (KSS) ([3]; Next Day Residual) | Karolinska Sleepiness Scale (KSS) ([3]; Steady State) | Structure (SMILES) | Treatment Emergent Adverse Events: Cardiac [4] | Treatment Emergent Adverse Events: Gastrointestinal Disorders [4] | Treatment Emergent Adverse Events: General: Sluggishness [4] | Treatment Emergent Adverse Events: Nervous System Disorders, Attention [4] | Treatment Emergent Adverse Events: Nervous System Disorders, Dizziness [4] | Treatment Emergent Adverse Events: Nervous System Disorders, Headache [4] | Treatment Emergent Adverse Events: Nervous System Disorders, Lethargy [4] | Treatment Emergent Adverse Events: Nervous System Disorders, Somnolence [4] | further results
1 | did not differ significantly | non-significant | no significant effect | no increase | no significant increase | significantly impaired effect | 66.4 | 66.7 | 67.4 | 5.5 | 4.1 | 3.8 | CN(C)CCC=C1c2ccccc2C=Cc2ccccc21 [Cyclobenzaprine, cyclobenzaprine] | 1 | 4 | 1 | 0 | 3 | 0 | 1 | 10 | Lane Exceedance Maximum and Duration of Exceedance compared to placebo ([1]; Cyc: Days 1 and 2, Tol: any time-point): significantly worse; Lane Exceedance (extent of driving outside of lanes) ([1]; Day 1 (at Tmax)): 3.6; Total Collisions ([1]; Day 1 (at Tmax)): 1.6; Speedings Ratio compared to placebo ([1]; Day 2 and 3): no significant effect; Lane Exceedance (extent of driving outside of lanes) ([1]; Next Day Residual): 3.2; Total Collisions ([1]; Next Day Residual): 0.4; Lane Exceedance (extent of driving outside of lanes) ([1]; Steady State): 2.9; Total Collisions ([1]; Steady State): 0.1; KSS subjective sleepiness ([3]; Day 1): significantly more subjective sleepiness; KSS subjective sleepiness ([3]; Day 2 or Day 3): did not report feeling more sleepy; Treatment Emergent Adverse Events: Psychiatric (Insomnia) [4]: 1; Treatment Emergent Adverse Events: Respiratory [4]: 0; Treatment Emergent Adverse Events: Skin [4]: 0; severe AE ([4]; in vivo): one severe AE of dizziness; number of Treatment Emergent Adverse Events (TEAEs) reported [4]: 21
2 | did not differ significantly | non-significant | no significant effect | no increase | no significant increase | equivalent results | 66.6 | 69.3 | 70.1 | 3.5 | 4.0 | 3.1 | Cc1ccc(C(=O)C(C)CN2CCCCC2)cc1 (stereo not drawn) [Tolperisone, tolperisone] | 0 | 1 | 0 | 1 | 1 | 1 | 0 | 5 | Reaction time on the divided attention test [1]: statistically significant improvement; Reaction time on the divided attention test ([1]; listed as Tol): significantly faster; Excessive Ay compared to placebo ([1]; in vivo): no significant increase; Lane Exceedance Maximum and Duration of Exceedance compared to placebo ([1]; in vivo): not seen; Speedings Count compared to placebo ([1]; in vivo): not significantly impacted; Speedings Ratio compared to placebo ([1]; in vivo): no significant effect; hangover effect the morning following nighttime dosing ([1]; in vivo): does not produce a hangover effect; majority of secondary driving endpoint measures compared to placebo ([1]; in vivo): no statistically significant difference; KSS self-reported sleepiness ([3]; any time-point): no significant increase; Treatment Emergent Adverse Events: Psychiatric (Insomnia) [4]: 0; Treatment Emergent Adverse Events: Respiratory [4]: 1; Treatment Emergent Adverse Events: Skin [4]: 0; discontinuation due to AE ([4]; following the first day of dosing): one subject due to a moderate AE of a Crohn's Disease flare up; number of Treatment Emergent Adverse Events (TEAEs) reported [4]: 15
